Laboratory results: patent publication US20260243779A1, “METHOD FOR EVALUATING RECEPTOR-TYPE TYROSINE KINASE ACTIVITY” (The University of Osaka, priority 2023, published 2026)

Assays:
EGFR [1] = biological target: T1, EGFR (Homo sapiens, UniProt P00533); assay: EGFR immunostaining, subcellular localization of the EGFR; format: cell-based; details: EGF not necessary
EGFR [2] = biological target: T1, EGFR; assay: Drug evaluation / FDA-approved drug library screening using MSDδt=500 ms ratio before and after EGF addition, CHO cells expressing EGFR-GFP; details: for MSDδt=500 ms ratio compared with the control: compound addition changed MSDδt=500 ms in an EGF-independent manner; for hit in primary screening (MSDδt=500 ms ratio equal to or greater than threshold = control average + 3×standard deviation): FDA-approved drug library (1134 drugs), EGF 60 nM, among the 53 hit compounds
ErbB3 = ErbB3 (Homo sapiens, UniProt P21860); assay: Single-molecule imaging of CHO cell expressing ErbB3-GFP, MSD ratio HRG-treated/untreated; format: cell-based; details: drug 0.1 to 10,000 nM; HRG saturated (>30 nM); concentration-dependent; FIG. 8A
Description: FIGS. 8A and 8B show the relationship between the drug (Sapitinib or Afaitinib) concentration and the receptor diffusion dynamics (MSDδt=500 ms ratio) when the HRG concentration is saturated (>30 nM); here, FIG. 8A is the result for Sapitinib and FIG. 8B is the result for Afaitinib. […] Therefore, it was confirmed that the effect of the phosphorylation inhibitor can be estimated from the change in the molecular dynamics by measuring the diffusion dynamics and calculating the ratio of the MSD values, even for the RTK receptor other than the EGFR.

T1 sequence (P00533 25-1210): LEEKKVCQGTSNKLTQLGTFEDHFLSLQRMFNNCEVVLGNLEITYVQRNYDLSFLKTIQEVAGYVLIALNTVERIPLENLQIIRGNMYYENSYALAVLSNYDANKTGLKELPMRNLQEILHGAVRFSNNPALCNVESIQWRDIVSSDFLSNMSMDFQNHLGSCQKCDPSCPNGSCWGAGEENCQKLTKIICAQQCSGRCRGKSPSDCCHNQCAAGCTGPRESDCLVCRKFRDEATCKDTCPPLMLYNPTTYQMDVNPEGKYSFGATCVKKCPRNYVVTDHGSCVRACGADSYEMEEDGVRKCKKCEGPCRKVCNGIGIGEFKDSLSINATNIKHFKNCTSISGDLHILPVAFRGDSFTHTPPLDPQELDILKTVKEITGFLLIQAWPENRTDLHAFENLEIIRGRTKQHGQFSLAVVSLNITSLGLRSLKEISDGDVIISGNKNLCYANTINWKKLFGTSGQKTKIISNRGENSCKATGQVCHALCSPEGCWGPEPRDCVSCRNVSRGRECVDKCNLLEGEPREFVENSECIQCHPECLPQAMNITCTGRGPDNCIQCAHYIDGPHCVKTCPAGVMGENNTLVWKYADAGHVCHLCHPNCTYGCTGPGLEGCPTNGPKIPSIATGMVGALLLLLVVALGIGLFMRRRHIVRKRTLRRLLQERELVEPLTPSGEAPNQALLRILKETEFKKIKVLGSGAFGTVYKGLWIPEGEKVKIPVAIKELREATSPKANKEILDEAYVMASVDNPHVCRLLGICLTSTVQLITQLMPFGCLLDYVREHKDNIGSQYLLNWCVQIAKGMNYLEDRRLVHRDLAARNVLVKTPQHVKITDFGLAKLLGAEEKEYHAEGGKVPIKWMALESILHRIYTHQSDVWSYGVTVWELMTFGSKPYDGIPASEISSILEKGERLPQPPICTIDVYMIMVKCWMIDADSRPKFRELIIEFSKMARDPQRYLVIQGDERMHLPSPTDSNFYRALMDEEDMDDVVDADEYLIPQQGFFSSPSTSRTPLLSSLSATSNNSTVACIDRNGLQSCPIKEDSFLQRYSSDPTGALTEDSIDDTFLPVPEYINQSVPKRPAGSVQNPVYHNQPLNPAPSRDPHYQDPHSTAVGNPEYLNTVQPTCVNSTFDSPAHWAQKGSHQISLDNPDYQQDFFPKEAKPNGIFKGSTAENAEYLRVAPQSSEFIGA
ErbB3, sequence (P21860 20-1342): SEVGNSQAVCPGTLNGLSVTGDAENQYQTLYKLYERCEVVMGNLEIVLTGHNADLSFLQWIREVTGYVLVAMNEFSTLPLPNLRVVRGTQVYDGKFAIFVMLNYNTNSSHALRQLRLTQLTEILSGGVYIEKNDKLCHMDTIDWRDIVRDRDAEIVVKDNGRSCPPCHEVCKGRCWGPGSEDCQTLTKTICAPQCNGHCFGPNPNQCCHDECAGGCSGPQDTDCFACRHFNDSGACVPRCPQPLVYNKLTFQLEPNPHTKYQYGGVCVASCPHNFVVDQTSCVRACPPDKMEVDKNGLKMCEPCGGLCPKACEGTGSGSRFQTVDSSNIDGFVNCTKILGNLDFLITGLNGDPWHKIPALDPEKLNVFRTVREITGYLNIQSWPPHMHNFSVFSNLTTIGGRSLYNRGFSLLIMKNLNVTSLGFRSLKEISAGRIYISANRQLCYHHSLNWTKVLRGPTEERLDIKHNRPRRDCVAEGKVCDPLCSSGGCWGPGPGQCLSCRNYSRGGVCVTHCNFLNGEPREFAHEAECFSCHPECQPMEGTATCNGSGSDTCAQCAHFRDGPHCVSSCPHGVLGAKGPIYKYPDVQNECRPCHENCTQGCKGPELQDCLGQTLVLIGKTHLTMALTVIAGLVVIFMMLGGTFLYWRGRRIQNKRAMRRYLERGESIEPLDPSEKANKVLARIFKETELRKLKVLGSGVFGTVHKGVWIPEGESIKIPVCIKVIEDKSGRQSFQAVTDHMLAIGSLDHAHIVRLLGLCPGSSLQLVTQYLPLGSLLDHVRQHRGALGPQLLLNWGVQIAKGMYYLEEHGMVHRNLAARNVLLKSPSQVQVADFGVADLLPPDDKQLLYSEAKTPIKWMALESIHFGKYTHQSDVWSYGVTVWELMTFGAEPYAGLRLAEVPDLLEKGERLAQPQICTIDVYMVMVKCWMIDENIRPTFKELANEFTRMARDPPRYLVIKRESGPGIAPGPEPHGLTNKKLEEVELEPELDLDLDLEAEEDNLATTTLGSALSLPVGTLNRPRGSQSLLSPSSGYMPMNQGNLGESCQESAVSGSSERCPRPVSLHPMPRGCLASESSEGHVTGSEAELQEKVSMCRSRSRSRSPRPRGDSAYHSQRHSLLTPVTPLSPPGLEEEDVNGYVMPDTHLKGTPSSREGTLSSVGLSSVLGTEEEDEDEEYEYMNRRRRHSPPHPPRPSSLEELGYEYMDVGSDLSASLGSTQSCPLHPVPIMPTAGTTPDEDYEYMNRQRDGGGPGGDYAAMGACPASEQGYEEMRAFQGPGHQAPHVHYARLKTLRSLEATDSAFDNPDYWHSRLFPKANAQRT

effect on the subcellular localization of the EGFR (EGFR [1]) | MSDδt=500 ms ratio compared with the control (EGFR [2]) | SMILES | hit in primary screening (MSDδt=500 ms ratio equal to or greater than threshold = control average + 3×standard deviation) (EGFR [2]) | effect on reduction of receptor mobility (MSDδt=500 ms ratio) by HRG, ErbB3 (ErbB3)
EGFR was incorporated into the cell | significantly different from the control | Oc1c(Br)cc(Br)c2cccnc12 [Broxyquinoline] |  | 
EGFR was incorporated into the cell | significantly different from the control | Cc1cn(-c2cc(NC(=O)c3ccc(C)c(Nc4nccc(-c5cccnc5)n4)c3)cc(C(F)(F)F)c2)cn1 [Nilotinib] |  | 

More lines, now with the values behind:

SMILES | effect on the subcellular localization of the EGFR (EGFR [1]) | MSDδt=500 ms ratio compared with the control (EGFR [2]) | hit in primary screening (MSDδt=500 ms ratio equal to or greater than threshold = control average + 3×standard deviation) (EGFR [2]) | effect on reduction of receptor mobility (MSDδt=500 ms ratio) by HRG, ErbB3 (ErbB3)
COc1cccc2c1C(=O)c1c(O)c3c(c(O)c1C2=O)C[C@@](O)(C(C)=O)C[C@@H]3O[C@H]1C[C@H](N)[C@H](O)[C@H](C)O1 [Daunorubicin] |  |  | included | 
O=C(OCC(O)CO)c1ccccc1Nc1ccnc2cc(Cl)ccc12 (stereo not drawn) [Glafenine] | EGFR was incorporated into the cell | significantly different from the control |  | 
C#Cc1cccc(Nc2ncnc3cc(OCCOC)c(OCCO)cc23)c1 [OSI-420] |  |  | included | 
CNC(=O)CN1CCC(Oc2cc3c(Nc4cccc(Cl)c4F)ncnc3cc2OC)CC1 [Sapitinib] |  |  |  | inhibited the reduction of the receptor mobility
